According to patent US7419984B2, “Pyrimidines and uses thereof” (Cell Therapeutics, Inc., priority 2002, dated 2008):

biological target: T1, human LPAAT-β (Homo sapiens, UniProt O15120); test: LPAAT-β cell-free assay; type: biochemical; details: Sf9 cell membrane overexpressing recombinant LPAAT-β
T1 construct: the full-length human LPAAT-β cDNA was amplified by PCR; poly-histidine tag (N); made in house; host or cells: Sf9 insect cells (baculovirus, pFastBac HTc); the membrane fraction was used as the enzyme
T1 sequence (O15120 24-278): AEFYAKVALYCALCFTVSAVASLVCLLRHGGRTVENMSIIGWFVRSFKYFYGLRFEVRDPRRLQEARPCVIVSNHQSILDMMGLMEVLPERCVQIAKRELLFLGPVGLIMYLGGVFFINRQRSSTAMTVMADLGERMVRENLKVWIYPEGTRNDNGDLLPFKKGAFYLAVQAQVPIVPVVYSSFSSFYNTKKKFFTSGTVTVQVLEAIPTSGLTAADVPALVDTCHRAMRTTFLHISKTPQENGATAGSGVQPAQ
Description: For the construction of Baculovirus expression vectors, the full-length human LPAAT-β cDNA was amplified by PCR from the DNA template pCE9.LPAAT-β (West et al., DNA Cell Bid. 16.691-701 (1997)) using the primers 5′-[…] […] […] […]-3′ (olpb1F; SEQ ID NO:1) and 5′-[…] […] […]-3′ (olpb1R; SEQ ID NO:2). The ˜870 bp fragment generated was reamplified by PCR using the primers 5′ […] […] […] […] ATC-3′ (olpb2F; SEQ ID NO:3) and 5′-[…] […] […]-3′ (olpb1R; SEQ ID NO:2). The ˜890 bp fragment generated was then cleaved with Sal I and Xba I for insertion into pFastBac™ HTc vector (Life Technologies, Gaithersberg, M.d.) between the Sal I and Xba I sites for the generation of the plasmid pFB.LPAAT-β. This plasmid was then transformed into E. coli DH10Bac™ (Life Technologies, Gaithersberg, M.d.) for the generation of recombinant Bacmid DNA for transfection in HighFive (Invitrogen, San Diego, Calif.) or SF9 insect cells for the production of recombinant Baculovirus stocks using the protocol described in the Bac-to-Bac® Baculovirus Expression System (Life Technologies, Gaithersberg, M.d.), a eukaryotic expression system for generating recombinant baculovirus through site-specific transposition in E. coli. Viral stocks harvested from the transfected cells can then be used to infect fresh insect cells for the subsequence expression of LPAAT-β fusion protein with a poly-histidine tag and a myc-epitope near its N-terminus. The membrane fraction from these Sf9 cells would be the source of LPAAT enzyme.
For the preparation of membranes from Sf9 Cells, all steps are performed on ice or at 4° C. Sf9 cell pellets (˜10^8 cells) were thawed and resuspended in 1-2 ml of buffer A (20 mM Hepes, pH 7.5, 1 mM DTT, 1 mM EDTA, 20% w/v glycerol, 1 mM Benzamidine, 1 μg/ml soybean trypsin inhibitor (SBTI), 1 μug/ml pepstatin A) w/o DTT but with 1 mM Pefabloc. The cells were lysed by sonication using a Branson Sonifier at output=2, duty cycle=2, 10 pulses each at 10 s. with the tip of small sonicator probe submerged but not touching the walls. DTT was then added to 1 mM from a 1 M stock. The samples were centrifuged at 1500 rpm for 5 min. The low speed supernatant was saved and centrifuged (TLA 100.3 rotor, polycarbonate tubes, 2 ml/tube or 1.5 ml/tube minimum) at 100000×g for 1 hr. The high speed pellet was resuspend in Buffer A with a probe sonicator (10 pulses @ output #2 and duty cycle 20%) as a source of LPAAT enzyme.
LPAAT-β catalyzes the transfer of an acyl group from a donor such as acyl-CoA to LPA. The transfer of the acyl group from acyl-CoA to LPA leads to the release of free CoA, which can be reacted with the thiol reagent, 5,5′-dithiobis(2-nitrobenzoic acid) (DTNB). The reaction between DTNB and the free sulfhydryl group from CoA generates a yellow-colored product, 3-carboxylato-4-nitrothiophenolate (CNP), that absorbs at 413 nm. LPAAT-β derived from Sf9 cell membrane overexpressing LPAAT-β were resuspended in HEPES saline buffer (20 mM HEPES pH 7.5, 150 mM NaCl), 1 mg/ml BSA and 72 μl aliquots were distributed into 96-well microtiter plates. 8 μl of compound of interest at 200 μM dissolved in 100% DMSO was added into each well. […] of 1 mM 18:1-CoA and 1 mM sn-1-18:1 lysoPA was then added to each well to initiate the reaction and allowed to run at room temperature for 25 min. 100 μl of 1 mM DTNB in 100% ethanol was then added to each well to quench the reaction and for color development. The absorbance at 405 nm, measured using a spectrophotometer plate reader, is proportional to the activity of LPAAT-2 in the sample. This colorimetric assay was used for the high throughput screening of LPAAT inhibitors.
The radiometric assay was carried out in Sf9 cell membrane overexpressing LPAAT-β resuspended in HEPES-saline buffer, pH 7.5, 1 mg/ml BSA, 1 mM EDTA and 200 μM [^14C]18:1-CoA and 200 μM sn-1-18:1 lysoPA.

Row | IC50 | LPAAT-β cell-free assay (IC50, μM) | Structure (SMILES)
1 | 38 nM |  | Cc1ccc(Cl)cc1-c1cc(Nc2ccc(C#N)cc2)nc(N)n1 [Example 32, 4-[2-Amino-6-(5-chloro-2-methyl-phenyl)-pyrimidin4-ylamino]-benzonitrile]
2 | 95 nM |  | Cc1ccc(Cl)cc1-c1cc(Nc2ccc(CO)cc2)nc(N)n1 [Example 33, {4-[2-Amino-6-(5-chloro-2-methyl-phenyl)-pyrimidin4-ylamino]-phenyl}-methanol]
3 | 2000 nM |  | COc1ccc(Cl)cc1-c1cc(N)nc(Nc2ccc(Cl)cc2)n1 [Example 34, 6-(5-Chloro-2-methoxy-phenyl)-N*2*-(4-chloro-phenyl)-pyrimidine-2,4-diamine]
4 | 800 nM |  | COc1ccc(Cl)cc1-c1cc(N)nc(Nc2ccc3cn[nH]c3c2)n1 [Example 35, 6-(5-Chloro-2-methoxyphenyl)-N*2*-(1H-indazol-6yl)-pyrimidine-2,4-diamine]
5 | 8000 nM |  | COc1ccc(Cl)cc1-c1nc(N)cc(Nc2ccc(Br)cc2)n1 [Example 36, N-(4-Bromo-phenyl)-2-(5-chloro-2-methoxy-phenyl)-pyrimidine4,6-diamine]
6 | 2100 nM |  | COc1ccc(Cl)cc1-c1nc(N)cc(Nc2ccc3cn[nH]c3c2)n1 [Example 37, 2-(5-Chloro-2-methoxy-phenyl)-N-(1H-indazol-6-yl)-pyrimidine4,6-diamine]
7 | 50 nM |  | COc1ccc(Cl)cc1-c1cc(Nc2ccc(Cl)cc2)nc(C)n1 [Example 38, [6-(5-Chloro-2-methoxy-phenyl)-2-methyl-pyrimidin-4-yl]-(4-chloro-phenyl)-amine]
8 | 180 nM |  | COc1ccc(Cl)cc1-c1cc(Nc2ccc(Br)cc2)nc(C)n1 [Example 39, [6-(5-Chloro-2-methoxy-phenyl)-2-methyl-pyrimidin-4-yl]-(4-bromo-phenyl)-amine]
9 | 14 nM |  | COc1ccc(Cl)cc1-c1cc(Nc2ccc3cn[nH]c3c2)nc(C)n1 [Example 40, [6-(5-Chloro-2-methoxy-phenyl)-2-methyl-pyrimidin4-yl]-(1H-indazol-6-yl)-amine]
10 | 21 nM |  | Cc1nc(Nc2ccc(Br)cc2)cc(-c2cc(Cl)ccc2C)n1 [Example 41, [6-(5-Chloro-2-methyl-phenyl)-2-methyl-pyrimidin-4-yl]-(4-bromo-phenyl)-amine]
11 | 10 nM |  | Cc1nc(Nc2ccc(Cl)cc2)cc(-c2cc(Cl)ccc2C)n1 [Example 42, [6-(5-Chloro-2-methyl-phenyl)-2-methyl-pyrimidin-4-yl]-(4-chloro-phenyl)-amine]
12 | 17 nM |  | Cc1nc(Nc2ccc3cn[nH]c3c2)cc(-c2cc(Cl)ccc2C)n1 [Example 43, [6-(5-Chloro-2-methyl-phenyl)-2-methyl-pyrimidin-4-yl]-(1H-indazol-6-yl)-amine]
13 | 75 nM |  | CCOc1ccc(Cl)cc1-c1cc(Nc2ccc(CO)cc2)nc(N)n1 [Example 44, {4-[2-Amino-6-(5-chloro-2-ethoxy-phenyl)-pyrimidin-4-ylamino]-phenyl}-methanol]
14 | 33 nM |  | COc1ccc(Cl)cc1-c1cc(Nc2ccc(C#N)cc2)nc(N)n1 [Example 45, 4-[2-Amino-6-(5-chloro-2-methoxy-phenyl)-pyrimidin-4-ylamino]-benzonitrile]
15 | 10 nM |  | CCOc1ccc(Cl)cc1-c1cc(Nc2ccc([N+](=O)[O-])cc2)nc(N)n1 [Example 46, 6-(5-Chloro-2-ethoxy-phenyl)-N*4*-(4-nitro-phenyl)-pyrimidine-2,4-diamine]
16 | 28 nM |  | CCOc1ccc(Cl)cc1-c1cc(Nc2ccc(CCO)cc2)nc(N)n1 [Example 47, 2-{4-[2-Amino-6-(5-chloro-2-ethoxy-phenyl)-pyrimidin4-ylamino]-phenyl}-ethanol]
17 | 28 nM |  | Nc1nc(Nc2ccc(CCO)cc2)cc(-c2cc(Cl)ccc2Cl)n1 [Example 48, 2-{4-[2-Amino-6-(2,5-dichloro-phenyl)-pyrimidin4-ylamino]-phenyl}-ethanol]
18 | 49 nM |  | Cc1ccc(Cl)cc1-c1cc(Nc2ccc(CCO)cc2)nc(N)n1 [Example 49, 2-{4-[2-Amino-6-(5-chloro-2-methyl-phenyl)-pyrimidin4-ylamino]-phenyl}-ethanol]
19 | 46 nM |  | COc1ccc(Cl)cc1-c1cc(Nc2ccc(CCO)cc2)nc(N)n1 [Example 50, 2-{4-[2-Amino-6-(5-chloro-2-methoxy-phenyl)-pyrimidin-4-ylamino]-phenyl}-ethanol]
20 |  | Lessactive | COc1ccc(Cl)cc1-c1nc(N)nc(Nc2ccc3cn[nH]c3c2)c1C [Example 51, 6-(5-Chloro-2-methoxy-phenyl)-5-methyl-N*4*-(1H-indazol-6-yl)-pyrimidine-2,4-diamine]
21 | 500 nM |  | COc1ccc(Cl)cc1-c1nc(N)nc(Nc2ccc3cn[nH]c3c2)c1Br [Example 52, 5-Bromo-6-(5-chloro-2-methoxy-phenyl)-N*4*-(1H-indazol-6-yl)-pyrimidine-2,4-diamine]
22 | 95 nM |  | CCOc1ccc(Cl)cc1-c1cc(Nc2ccc(C)cc2)nc(N)n1 [Example 53, 6-(5-Chloro-2-ethoxy-phenyl)-N*4*-p-tolyl-pyrimidine-2,4-diamine]
23 | 24 nM |  | CCOc1ccc(Cl)cc1-c1cc(Nc2ccc3cn[nH]c3c2)nc(N)n1 [Example 54, 6-(5-Chloro-2-ethoxy-phenyl)-N*4*-(1H-indazol-6-yl)-pyrimdine-2,4-diamine]
24 | 17 nM |  | CCOc1ccc(Cl)cc1-c1cc(Nc2ccc(Cl)cc2)nc(N)n1 [Example 55, 6-(5-Chloro-2-ethoxy-phenyl)-N*4*-(4-chloro-phenyl)-pyrimidine-2,4-diamine]
25 | 70 nM |  | CCOc1ccc(Cl)cc1-c1cc(Nc2ccc(C(F)(F)F)cc2)nc(N)n1 [Example 56, 6-(5-Chloro-2-ethoxy-phenyl)-N*4*-(4-trifluoromethyl-phenyl)-pyrimidine-2,4-diamine]
26 | 22 nM |  | CCOc1ccc(Cl)cc1-c1cc(Nc2ccc(C#N)cc2)nc(N)n1 [Example 57, 4-[2-Amino-6-(5-chloro-2-ethoxy-phenyl)-pyrimidin4-ylamino]-benzonitrile]
27 | 200 nM |  | CCOc1ccc(Cl)cc1-c1cc(Nc2ccc(OC)cc2)nc(N)n1 [Example 58, 6-(5-Chloro-2-ethoxy-phenyl)-N*4*-(4-methoxy-phenyl)-pyrimidine-2,4-diamine]
28 | 210 nM |  | CCOc1ccc(Br)cc1-c1cc(Nc2ccc(C(=O)c3ccccc3)cc2)nc(N)n1 [Example 59, {4-[2-Amino-6-(5-bromo-2-ethoxy-phenyl)-pyrimidin4-ylamino]-phenyl}-phenyl-methanone]
29 | 60 nM |  | CCOc1ccc(Br)cc1-c1cc(Nc2ccc(C(F)(F)F)cc2)nc(N)n1 [Example 60, 6-(5-Bromo-2-ethoxy-phenyl)-N*4*-(4-trifuoromethyl-phenyl)-pyrimidin-2,4-diamine]
30 | 350 nM |  | CCOc1ccc(Br)cc1-c1cc(Nc2ccc(C(=O)OC)cc2)nc(N)n1 [Example 61, 4-[2-Amino-6-(5-bromo-2-ethoxy-phenyl)-pyrimidin-4-ylamino]-benzoic acid methyl ester]
